Patent publication US20240269139A1, “COMPOUNDS FOR TARGETED PROTEIN DEGRADATION OF KINASES” (DANA-FARBER CANCER INSTITUTE, INC., priority 2020, published 2024)
Where “and” joins values, the source holds several entries; their conditions need not be identical. Equal values may be shown once. Read-outs that look alike come from different tables or passages of the source.

Experiments:
[1] = test system: protein kinases (human kinome); format: cell-based; conditions: for kinases the bifunctional compound degrades: as stated for the structure in the embodiments; for Kinase hits: kinases significantly downregulated vs DMSO (fold change cutoff −1.25, P-value<0.01), ≤8 h, 0.1-5 μM degrader, 7 cell lines; for Total no. kinase hits: number of degraded kinases per library compound
[2] = target: protein kinases (human kinome) (Homo sapiens, UniProt P53671); format: cell-based; conditions: for logFC LIMK2: LIMK2 (P53671), down; for logFC of LIMK2: LIMK2 P53671
protein kinases (human kinome) (Homo sapiens, UniProt P53671), sequence (P53671 whole entry): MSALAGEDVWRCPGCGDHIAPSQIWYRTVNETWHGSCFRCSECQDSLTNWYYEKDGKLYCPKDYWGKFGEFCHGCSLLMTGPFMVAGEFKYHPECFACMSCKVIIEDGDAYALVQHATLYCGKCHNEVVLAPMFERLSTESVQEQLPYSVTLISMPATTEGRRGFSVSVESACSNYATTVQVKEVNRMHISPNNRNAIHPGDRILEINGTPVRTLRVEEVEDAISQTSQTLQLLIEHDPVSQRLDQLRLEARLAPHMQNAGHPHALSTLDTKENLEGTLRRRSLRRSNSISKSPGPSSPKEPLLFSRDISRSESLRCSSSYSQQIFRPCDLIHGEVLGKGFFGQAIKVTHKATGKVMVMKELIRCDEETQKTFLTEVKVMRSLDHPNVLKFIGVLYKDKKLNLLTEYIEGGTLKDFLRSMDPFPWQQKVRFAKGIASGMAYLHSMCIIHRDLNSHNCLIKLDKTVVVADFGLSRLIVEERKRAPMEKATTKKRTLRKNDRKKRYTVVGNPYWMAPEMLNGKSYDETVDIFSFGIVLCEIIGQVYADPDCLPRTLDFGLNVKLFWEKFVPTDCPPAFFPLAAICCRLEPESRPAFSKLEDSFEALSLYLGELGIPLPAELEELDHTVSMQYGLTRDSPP

[3] = AURKB Q96GD4-5, experiment wp108
[4] = AURKB Q96GD4-5, experiment wp131

SMILES: Cc1ncsc1-c1ccc([C@H](C)NC(=O)[C@@H]2C[C@@H](O)CN2C(=O)[C@@H](NC(=O)CCOCCOCCN2CCN(c3ccc(Nc4ncc(Cl)c(Nc5ccccc5S(=O)(=O)C(C)C)n4)cc3)CC2)C(C)(C)C)cc1 [FMF.06.098.1]
- logFC [1, 3]: −0.5246
- logFC AURKB [1, 3]: −0.5246
- logFC [1, 4]: −0.6726
- logFC AURKB [1, 4]: −0.6726
- logFC BUB1B ([1]; Accession O60566-3, experiment wp108, direction down): −0.4426
- logFC BUB1B ([1]; Accession O60566-3, experiment wp131, direction down): −0.4232
- logFC CSNK1D ([1]; Accession P48730-2, experiment wp108, direction down): −0.3812
- logFC CSNK1D ([1]; Accession P48730-2, experiment wp114, direction down): −0.4039
- logFC BUB1B ([1]; BUB1B (O60566-3), experiment wp108): −0.4426
- logFC BUB1B ([1]; BUB1B (O60566-3), experiment wp131): −0.4232
- logFC ([1]; CDK9 (P50750-2) protein abundance, degrader vs DMSO, down): −0.7233 and −0.6791
- logFC CSNK1D ([1]; CSNK1D P48730-2, experiment wp108): −0.3812
- logFC CSNK1D ([1]; CSNK1D P48730-2, experiment wp114): −0.4039
- logFC CDK9 (P50750-2) ([1]; Experiment wp108): −0.7233
- logFC PRKAA1 (Q13131-2) ([1]; Experiment wp131, direction down): −0.3695
- logFC ([1]; FER (P16591-3), experiment wp114, direction down): −0.3986
- logFC of FER ([1]; FER P16591-3, experiment wp114): −0.3986
- logFC FGFR1 (P11362-21) ([1]; experiment wp108, direction of change down): −0.4121
- logFC ABL2 (P42684-5) ([1]; experiment wp131): −0.6443
- logFC CDK9 (P50750-2) ([1]; experiment wp131): −0.6791
- logFC PRKAA1 (Q13131-2) ([1]; experiment wp131): −0.3695
- logFC of ABL2 (P42684-5) ([1]; experiment wp131): −0.6443
- logFC FGFR1 ([1]; protein FGFR1 (P11362-21), experiment wp108, down): −0.4121
- logFC LIMK2 ([2]; experiment wp108): −0.8226
- logFC LIMK2 ([2]; experiment wp114): −1.629
- logFC LIMK2 ([2]; experiment wp131): −1.077
- logFC of LIMK2 ([2]; experiment wp108): −0.8226
- logFC of LIMK2 ([2]; experiment wp114): −1.629
- logFC of LIMK2 ([2]; experiment wp131): −1.077

SMILES: Nc1ncc(-c2ccc(S(=O)(=O)N(CCCNC(=O)CCOCCOCCOCCOCCOCCNc3cccc4c3C(=O)N(C3CCC(=O)NC3=O)C4=O)C3CC3)cc2)cc1-c1ccc2c(c1)CCNC2=O (centres unmarked) [WH.10417.099]
- logFC CSNK1D ([1]; Accession P48730-2, experiment wp056, direction down): −1.455
- logFC CSNK1D ([1]; Accession P48730-2, experiment wp103, direction down): −1.301
- logFC CSNK1D ([1]; Accession P48730-2, experiment wp107, direction down): −1.248
- logFC CSNK1D ([1]; Accession P48730-2, experiment wp172, direction down): −0.6401
- logFC GSK3B ([1]; Accession P49841-2, experiment wp056, direction down): −1.294
- logFC GSK3B ([1]; Accession P49841-2, experiment wp103, direction down): −1.442
- logFC GSK3B ([1]; Accession P49841-2, experiment wp105, direction down): −0.8403
- logFC GSK3B ([1]; Accession P49841-2, experiment wp107, direction down): −1.446
- logFC ([1]; CSNK1A1 (P48729-2), experiment wp107): −2.428
- logFC CSNK1D ([1]; CSNK1D P48730-2, experiment wp056): −1.455
- logFC CSNK1D ([1]; CSNK1D P48730-2, experiment wp103): −1.301
- logFC CSNK1D ([1]; CSNK1D P48730-2, experiment wp107): −1.248
- logFC CSNK1D ([1]; CSNK1D P48730-2, experiment wp172): −0.6401
- logFC of CSNK1A1 (P48729-2) ([1]; Experiment wp107): −2.428
- logFC GSK3B ([1]; GSK3B P49841-2, experiment wp056): −1.294
- logFC GSK3B ([1]; GSK3B P49841-2, experiment wp103): −1.442
- logFC GSK3B ([1]; GSK3B P49841-2, experiment wp105): −0.8403
- logFC GSK3B ([1]; GSK3B P49841-2, experiment wp107): −1.446
- logFC LIMK2 ([2]; experiment wp103): −0.5747
- logFC LIMK2 ([2]; experiment wp107): −0.3744
- logFC of LIMK2 ([2]; experiment wp103): −0.5747
- logFC of LIMK2 ([2]; experiment wp107): −0.3744

SMILES: CS(=O)(=O)Nc1cccc(-c2csc3cnc(Nc4ccc(N5CCN(CCCCCOc6cccc7c6C(=O)N(C6CCC(=O)NC6=O)C7=O)CC5)cc4)nc23)c1 (centres unmarked) [DB0614, N-(3-(2-((4-(4-(5-((2-(2,6-Dioxopiperidin-3-yl)-1,3-dioxoisoindolin-4-yl)oxy)pentyl)piperazin-1-yl)phenyl)amino)thieno[3,2-d]pyrimidin-7-yl)phenyl)methanesulfonamide]
- logFC ([1]; CAMKK1 (Q8N5S9-2), experiment wp045): −0.6487
- logFC of CAMKK1 (Q8N5S9-2) ([1]; Experiment wp045): −0.6487
- logFC MAPK8 (P45983-4) ([1]; Experiment wp045, direction down): −0.6882
- logFC of MAPK8 (P45983-2) ([1]; Experiment wp117): −0.6328
- logFC MAPK8 (P45983-2) ([1]; Experiment wp117, direction down): −0.6328
- logFC LCK ([1]; LCK, accession P06239-3, experiment wp045, direction of change down): −0.33
- logFC MAPK8 ([1]; MAPK8 P45983-4, experiment wp045): −0.6882
- logFC ([1]; PTK2B (Q14289-2), experiment wp117, direction down): −1.203
- logFC PTK2B ([1]; PTK2B, accession Q14289-2, experiment wp117, direction of change down): −1.203
- kinases the bifunctional compound degrades [1]: AAK1, AURKA, BMP2K, CAMKK1, CDK16, CDK4, CDK6, EIF2AK2, FER, GAK, LCK, LIMK2, MAP3K11, MAPK8, MAPK9, NEK9, PLK4, PTK2B, SIK2, STK17A, STK17B, ULK1, ULK3, and WEE1
- logFC LCK (P06239-3) ([1]; experiment wp045, direction of change down): −0.33
- logFC CDK16 (Q00536-2) ([1]; experiment wp117): −0.5528
- Kinase hits [1]: AAK1, AURKA, BMP2K, CAMKK1, CDK16, CDK4, CDK6, EIF2AK2, FER, GAK, LCK, LIMK2, MAP3K11, MAPK8, MAPK9, NEK9, PLK4, PTK2B, SIK2, STKI7A, STKI7B, ULK1, ULK3, WEE1
- Total no. kinase hits [1]: 24
- logFC LIMK2 ([2]; experiment wp045): −0.437
- logFC of LIMK2 ([2]; experiment wp045): −0.437

SMILES: Cc1ncsc1-c1ccc([C@H](C)NC(=O)[C@@H]2C[C@@H](O)CN2C(=O)[C@@H](NC(=O)CCCCCN2CCN(c3ccc(Nc4ncc5scc(-c6cccc(NS(C)(=O)=O)c6)c5n4)cc3)CC2)C(C)(C)C)cc1 [RSS0680, (2S,4R)-1-((S)-3,3-Dimethyl-2-(6-(4-(4-((7-(3-(methylsulfonamido)phenyl)thieno[3,2-d]pyrimidin-2-yl)amino)phenyl)piperazin-1-yl)hexanamido)butanoyl)-4-hydroxy-N—((S)-1-(4-(4-methylthiazol-5yl)phenyl)ethyl)pyrrolidine-2-carboxamide]
- kinases the bifunctional compound degrades [1]: AAK1, CDK1, CDK16, CDK2, CDK4, CDK6, EIF2AK4, GAK. LATS1, LIMK2, MAPK6, MAPKAPK5, MARK2, MARK4, MKNK2, NEK9, RPS6KB1, SIK2, SNRK, STK17A, STK17B, STK35, and WEE1
- logFC CDK16 (Q00536-2) ([1]; experiment wp080): −1.002
- logFC CDK16 (Q00536-2) ([1]; experiment wp117): −0.9383
- Kinase hits [1]: AAK1, CDK1, CDK16, CDK2, CDKA, CDK6, EIF2AK4, GAK, LATS1, LIMK2, MAPK6, MAPKAPK5, MARK2, MARK4, MKNK2, NEK9, RPS6KB1, SIK2, SNRK, STK17A, STK17B. STK35, WEE1
- Total no. kinase hits [1]: 26
- logFC HK1 ([1]; protein HK1 (P19367-3), experiment wp080, down): −0.3696
- logFC LIMK2 ([2]; experiment wp080): −0.8809
- logFC LIMK2 ([2]; experiment wp117): −1.109
- logFC of LIMK2 ([2]; experiment wp080): −0.8809
- logFC of LIMK2 ([2]; experiment wp117): −1.109
